Results: patent US6153589A, “2,3-epoxy alcohols, acids and derivatives as anti retroviral chemotherapeutic agents” (The United States of America as represented by the …, priority 1992, dated 2000)
Where two headings read alike, the source gives them in different places.

Legend:
HIV-2 protease = assay: HIV protease cleavage of nonapeptide (HPLC); format: biochemical; settings: 0.5 μl of 10 μg/μl inhibitor in DMSO per 10 μl reaction; pH 6.5, room temperature; pentapeptide product relative to DMSO control; sampled at ca. 16 and 40 hr (time not given)
Procedure, shortened: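 Nonapeptide substrate Val-Ser-Gln-Asn-Tyr-Pro-Ile-Val-Gln-NH2 incubated with protease (ca. 100 ng) in 200 mM sodium phosphate, 1 M NaCl, 5% glycerol, 0.25% NP-40, pH 6.5, at room temperature with inhibitor added from a 10 μg/μl DMSO stock. Samples taken at ca. 16 and 40 h; RP-HPLC (206 nm) measured pentapeptide product relative to DMSO control.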

porcine Renin = biological target: T1, porcine Renin (Sus scrofa, UniProt A0A287APG1); assay: Porcine Renin cleavage of porcine tetradecapeptide (HPLC); format: biochemical; settings: 0.5 μl of 50 μg/μl inhibitor in DMSO in 50 μl; pH 6.00, room temperature, 70 min; relative to uninhibited control
T1 construct: purchased Sigma
T1 sequence (A0A287APG1 24-407): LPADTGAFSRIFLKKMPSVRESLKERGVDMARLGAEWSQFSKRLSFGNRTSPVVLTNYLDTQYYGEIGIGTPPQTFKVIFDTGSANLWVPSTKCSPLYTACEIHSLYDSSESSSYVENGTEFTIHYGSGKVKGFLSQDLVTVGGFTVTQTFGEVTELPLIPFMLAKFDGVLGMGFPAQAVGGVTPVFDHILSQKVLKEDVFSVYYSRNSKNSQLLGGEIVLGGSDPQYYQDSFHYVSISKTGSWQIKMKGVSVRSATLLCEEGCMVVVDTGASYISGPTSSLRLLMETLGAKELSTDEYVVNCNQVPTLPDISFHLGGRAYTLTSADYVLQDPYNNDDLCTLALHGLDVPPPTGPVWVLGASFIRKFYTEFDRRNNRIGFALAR
From the text: Renin Activity: Porcine Renin Cleavage of Porcine Tetradecapeptide
Proteolytic enzymes are ubiquitous in many living systems. Renin is an asparxyl protease found in mammals which is responsible for the regulation of blood pressure. Structural and functional similarities between Renin and retroviral proteases have been previously noted (Pearl, L. H., Taylor, W. R., (1987) Nature, 329, 351-354). Consequently, successful therapeutic inhibition of retroviral proteases depends on the ability of the inhibitor to inhibit the retroviral enzyme while having a greatly diminished effect on normally occurring enzymes like Renin. The failure to inhibit the desired enzyme selectively may have an adverse effect on normal biochemical functions. The similarity of Renin to retroviral proteases and its viral normal bodily function makes it an attractive system in which to examine inhibitory selectivity.
Renin activity was determined by a method similar to that described above for the HIV protease. A solution containing 0.37 m unit (0.5 μl of stock solution containing 0.75 m unit/μl) of porcine Renin (Sigma) was added to 5 μg of porcine angiotensinogen in 50 μl of 0.1 M citrate-phosphate buffer (pH 6.00) containing 0.25% NP-40. A DMSO solution containing the inhibitor (0.5 μl of a 50 μg/μl solution) was added and the reaction was allowed to incubate at room temperature for 70 min. The entire mixture was analyzed by HPLC chromatographic analysis was perforemd on a 4.6×250 mm Lichrosorb RP-18 column eluting with a gradient of 0-50% acetonitrile in 0.02 M KH2 Po4 (pH 4.7) over 30 min monitoring absorbance at 206 nm. Appearance of both the tetrapeptide and the decapeptide products may be monitored under these conditions. Enzyme activity is expressed as the amount of tetrapeptide produced relative to an uninhibited control, and are summarized in Table 3 below.

Rous Sarcoma Virus = settings: in vitro; literature report; cited from earlier work
Murine Leukemia Virus = settings: in vitro; literature report; cited from earlier work
HIV infected cells = settings: literature report; cited from earlier work
fatty acid synthesis = settings: literature report; cited from earlier work
[1] = literature report; cited from earlier work
HIV1 IIIb = assay: microbe, parasite or virus in culture; format: cell-based; settings: Human immunodeficiency virus 1, IIIB; for viability at 10 µg/mL: 10 ug/ml; for viability at 80.2 µg/mL: 80.2 ug/ml; for viability at 23.8 µg/mL: 23.8 ug/ml; for viability at 14 µg/mL: 14 ug/ml; for viability at 140 µg/mL: 140 ug/ml; for viability at 38 µg/mL: 38 ug/ml; for viability at 35.2 µg/mL: 35.2 ug/ml; for viability at 20.7 µg/mL: 20.7 ug/ml; for viability at 3.52 µg/mL: 3.52 ug/ml
Procedure, shortened: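 Human host cells infected with HIV1 IIIb (virus-producing H9 cells or cell-free virus) and incubated seven days with compound. Viable cells measured by XTT formazan absorbance; response expressed as % of uninfected controls against virus kill %. Some cultures redosed after 3 days.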

## C/C=C/C/C=C/CCC(=O)[C@H]1O[C@H]1C(N)=O [Cerulenin, 4-Oxo-2R,3S-epoxy-trans,trans-2,5-dodecadienyl amide]
HIV-2 protease
  Percent Control Cleavage of Nonapeptide HIV-1 Cleavage Site Fragment: 10%
Porcine Renin
  Percent control (tetrapeptide produced): 68%
Rous Sarcoma Virus
  antiretroviral activity against Rous Sarcoma Virus: exhibit antiretroviral activity
Murine Leukemia Virus
  antiretroviral activity against Murine Leukemia Virus: exhibit antiretroviral activity
HIV infected cells
  inhibition of viral polyprotein processing: inhibit viral polyprotein processing
Fatty acid synthesis
  inhibition of fatty acid synthesis: potent inhibitor of fatty acid synthesis
[1]
  toxicity: relatively high toxicity

## CCCCCCC[C@H]1O[C@H]1CO [Example 15, (2S-cis)-3-Heptyloxirane Methanol]
HIV1 IIIb; 168 h, read-out: Antiviral Effect (viable cells as % of uninfected controls), run 3, 92 ug/ml, source V (cell free virus), virus kill 35.0%
  viability at 92 µg/mL: 60.8%
HIV1 IIIb; 168 h, read-out: Antiviral Effect (viable cells as % of uninfected controls), run 4, source V (cell free virus), virus kill 57.0%
  viability at 10 µg/mL: 78.2%
HIV1 IIIb; 168 h, read-out: Antiviral Effect (viable cells as % of uninfected controls), run 5, source V (cell free virus), virus kill 26.0%
  viability at 10 µg/mL: 58.6%
HIV1 IIIb; 168 h, read-out: Antiviral Effect (viable cells as % of uninfected controls), run 6*, 21.6 ug/ml, source V (cell free virus), virus kill 31.0%, culture redosed with compound after 3 days
  viability at 21.6 µg/mL: 32%
HIV1 IIIb; H9, 168 h, read-out: Antiviral Effect (viable cells as % of uninfected controls), run 1, 46 ug/ml, source C (virus producing H9 cells), virus kill 15.0%
  viability at 46 µg/mL: 58.3%
HIV1 IIIb; H9, 168 h, read-out: Antiviral Effect (viable cells as % of uninfected controls), run 2, 4.6 ug/ml, source C (virus producing H9 cells), virus kill 13.0%
  viability at 4.6 µg/mL: 11.8%
HIV-2 protease
  Percent Control Cleavage of Nonapeptide HIV-1 Cleavage Site Fragment: 59%
Porcine Renin
  Percent control (tetrapeptide produced): 86%

## CCCCCCC[C@@H]1O[C@@H]1CO [Example 16, (2R-cis)-3-Heptyloxirane Methanol]
HIV1 IIIb; 168 h, read-out: Antiviral Effect (viable cells as % of uninfected controls), run 4, 160 ug/ml, source V (cell free virus), virus kill 40.0%
  viability at 160 µg/mL: 62.6%
HIV1 IIIb; 168 h, read-out: Antiviral Effect (viable cells as % of uninfected controls), run 5, source V (cell free virus), virus kill 60.0%
  viability at 80.2 µg/mL: 97.3%
HIV1 IIIb; 168 h, read-out: Antiviral Effect (viable cells as % of uninfected controls), run 6, source V (cell free virus), virus kill 30.0%
  viability at 80.2 µg/mL: 88.6%
HIV1 IIIb; 168 h, read-out: Antiviral Effect (viable cells as % of uninfected controls), run 7, source V (cell free virus), virus kill 22.0%
  viability at 23.8 µg/mL: 35.9%
HIV1 IIIb; 168 h, read-out: Antiviral Effect (viable cells as % of uninfected controls), run 8*, source V (cell free virus), virus kill 28.0%, culture redosed with compound after 3 days
  viability at 23.8 µg/mL: 39.7%
HIV1 IIIb; H9, 168 h, read-out: Antiviral Effect (viable cells as % of uninfected controls), run 1, 10.6 ug/ml, source C (virus producing H9 cells), virus kill 14.0%
  viability at 10.6 µg/mL: 27.3%
HIV1 IIIb; H9, 168 h, read-out: Antiviral Effect (viable cells as % of uninfected controls), run 2, source C (virus producing H9 cells), virus kill 15.0%
  viability at 80.2 µg/mL: 69.6%
HIV1 IIIb; H9, 168 h, read-out: Antiviral Effect (viable cells as % of uninfected controls), run 3, source C (virus producing H9 cells), virus kill 15.0%
  viability at 80.2 µg/mL: 84.5%
HIV-2 protease
  Percent Control Cleavage of Nonapeptide HIV-1 Cleavage Site Fragment: 42%
Porcine Renin
  Percent control (tetrapeptide produced): 96%

## CCCCCCCCC[C@H]1O[C@H]1C(N)=O [Example 23, (2R-cis)-3-Nonyloxiranecarboxy Amide]
HIV1 IIIb; 168 h, read-out: Antiviral Effect (viable cells as % of uninfected controls), run 7, 2.8 ug/ml, source V (cell free virus), virus kill 19.0%
  viability at 2.8 µg/mL: 108%
HIV1 IIIb; 168 h, read-out: Antiviral Effect (viable cells as % of uninfected controls), run 8, 7.6 ug/ml, source V (cell free virus), virus kill 30.0%
  viability at 7.6 µg/mL: 40.2%
HIV1 IIIb; 168 h, read-out: Antiviral Effect (viable cells as % of uninfected controls), run 9, 3.8 ug/ml, source V (cell free virus), virus kill 52.0%
  viability at 3.8 µg/mL: 60.1%
HIV1 IIIb; 168 h, read-out: Antiviral Effect (viable cells as % of uninfected controls), run 10, source V (cell free virus), virus kill 52.0%
  viability at 14 µg/mL: 60.1%
HIV1 IIIb; 168 h, read-out: Antiviral Effect (viable cells as % of uninfected controls), run 11, 380 ug/ml, source V (cell free virus), virus kill 20.0%
  viability at 380 µg/mL: 24%
HIV1 IIIb; 168 h, read-out: Antiviral Effect (viable cells as % of uninfected controls), run 12, source V (cell free virus), virus kill 20.0%
  viability at 140 µg/mL: 31%
HIV1 IIIb; 168 h, read-out: Antiviral Effect (viable cells as % of uninfected controls), run 13*, 27 ug/ml, source V (cell free virus), virus kill 22.0%, culture redosed with compound after 3 days
  viability at 27 µg/mL: 79.6%
HIV1 IIIb; H9, 168 h, read-out: Antiviral Effect (viable cells as % of uninfected controls), run 1, 28 ug/ml, source C (virus producing H9 cells), virus kill 6.0%
  viability at 28 µg/mL: 75.6%
HIV1 IIIb; H9, 168 h, read-out: Antiviral Effect (viable cells as % of uninfected controls), run 2, 76 ug/ml, source C (virus producing H9 cells), virus kill 17.0%
  viability at 76 µg/mL: 28.5%
HIV1 IIIb; H9, 168 h, read-out: Antiviral Effect (viable cells as % of uninfected controls), run 3, source C (virus producing H9 cells), virus kill 14.0%
  viability at 38 µg/mL: 35.1%
HIV1 IIIb; H9, 168 h, read-out: Antiviral Effect (viable cells as % of uninfected controls), run 4, source C (virus producing H9 cells), virus kill 14.0%
  viability at 140 µg/mL: 25.1%
HIV1 IIIb; H9, 168 h, read-out: Antiviral Effect (viable cells as % of uninfected controls), run 5, source C (virus producing H9 cells), virus kill 17.0%
  viability at 38 µg/mL: 17%
HIV1 IIIb; H9, 168 h, read-out: Antiviral Effect (viable cells as % of uninfected controls), run 6, source C (virus producing H9 cells), virus kill 17.0%
  viability at 14 µg/mL: 16%
HIV-2 protease
  Percent Control Cleavage of Nonapeptide HIV-1 Cleavage Site Fragment: 102%
Porcine Renin
  Percent control (tetrapeptide produced): 88%

## CCCCCCCCC[C@@H]1O[C@@H]1C(N)=O [Example 24, (2S-cis)-3-Nonyloxiranecarboxy Amide]
HIV1 IIIb; 168 h, read-out: Antiviral Effect (viable cells as % of uninfected controls), run 5, source V (cell free virus), virus kill 54.6%
  viability at 35.2 µg/mL: 73%
HIV1 IIIb; 168 h, read-out: Antiviral Effect (viable cells as % of uninfected controls), run 6, source V (cell free virus), virus kill 54.6%
  viability at 20.7 µg/mL: 71.4%
HIV1 IIIb; 168 h, read-out: Antiviral Effect (viable cells as % of uninfected controls), run 7, source V (cell free virus), virus kill 26.0%
  viability at 3.52 µg/mL: 28.1%
HIV1 IIIb; 168 h, read-out: Antiviral Effect (viable cells as % of uninfected controls), run 8, source V (cell free virus), virus kill 26.0%
  viability at 20.7 µg/mL: 34%
HIV1 IIIb; 168 h, read-out: Antiviral Effect (viable cells as % of uninfected controls), run 9, 1.34 ug/ml, source V (cell free virus), virus kill 20.0%
  viability at 1.34 µg/mL: 41.7%
HIV1 IIIb; 168 h, read-out: Antiviral Effect (viable cells as % of uninfected controls), run 10*, 0.135 ug/ml, source V (cell free virus), virus kill 23.0%, culture redosed with compound after 3 days
  viability at 0.135 µg/mL: 114%
HIV1 IIIb; H9, 168 h, read-out: Antiviral Effect (viable cells as % of uninfected controls), run 1, source C (virus producing H9 cells), virus kill 16.0%
  viability at 35.2 µg/mL: 73%
HIV1 IIIb; H9, 168 h, read-out: Antiviral Effect (viable cells as % of uninfected controls), run 2, source C (virus producing H9 cells), virus kill 16.0%
  viability at 20.7 µg/mL: 67.4%
HIV1 IIIb; H9, 168 h, read-out: Antiviral Effect (viable cells as % of uninfected controls), run 3, source C (virus producing H9 cells), virus kill 9.0%
  viability at 3.52 µg/mL: 11.3%
HIV1 IIIb; H9, 168 h, read-out: Antiviral Effect (viable cells as % of uninfected controls), run 4, 2.07 ug/ml, source C (virus producing H9 cells), virus kill 9.0%
  viability at 2.07 µg/mL: 10.5%
HIV-2 protease
  Percent Control Cleavage of Nonapeptide HIV-1 Cleavage Site Fragment: 113%
Porcine Renin
  Percent control (tetrapeptide produced): 106%
